Tests used:
Test in all cases: cells
Assay type in all cases: cell-based, human
B1 cell line = tested on: B1 cell line
MOLT-3 cell line = tested on: MOLT-3 cell line
SEM cell line = tested on: SEM cell line
TIB-202 cell line = tested on: TIB-202 cell line
KOPN8 cell line = tested on: KOPN8 cell line

Row | SMILES | IC50 (B1 cell line; Homo sapiens, 96 h) [µM] | IC50 (MOLT-3 cell line; Homo sapiens, MOLT-3, 96 h) [µM] | IC50 (SEM cell line; Homo sapiens, 96 h) [µM] | IC50 (TIB-202 cell line; Homo sapiens, 96 h) [µM] | IC50 (KOPN8 cell line; Homo sapiens, KOPN-8) [µM] | IC50 (KOPN8 cell line; Homo sapiens, KOPN-8, 96 h) [µM] | IC50 (B1 cell line; Table S1, B1, 96 hours) [µM] | IC50 (MOLT-3 cell line; Table S1, MOLT-3, 96 hours) [µM] | IC50 (SEM cell line; Table S1, SEM, 96 hours) [µM] | IC50 (TIB-202 cell line; Table S1, TIB-202, 96 hours) [µM] | IC50 (KOPN8 cell line; Table S1, KOPN8, 96 hours) [µM]
1 | CCN(CC)CCCC(C)Nc1c2ccc(Cl)cc2nc2ccc(OC)cc12 (centres unmarked) [Acrichine] | 4.63 | 4.07 | 6.4 | 4.5 | 0.722 | – | – | – | – | – | –
2 | Oc1ncnc2[nH]ncc12 [Allopurinol] | > 10 | > 10 | > 10 | > 5 | – | > 5 | – | – | – | – | –
3 | CN(C)c1nc(N(C)C)nc(N(C)C)n1 [Altretamine] | > 10 | > 10 | > 10 | > 10 | – | > 10 | – | – | – | – | –
4 | NCCCNCCSP(=O)(O)O [Amifostine] | > 10 | > 10 | > 10 | > 10 | – | > 10 | – | – | – | – | –
5 | NCC(=O)CCC(=O)O [Aminolevulinic acid] | > 10 | > 10 | > 10 | > 10 | – | > 10 | – | – | – | – | –
6 | CC(C)(C#N)c1cc(Cn2cncn2)cc(C(C)(C)C#N)c1 [Anastrozole] | > 10 | > 10 | 2.08 | > 10 | – | > 10 | – | – | – | – | –
7 | Nc1ncn([C@@H]2O[C@H](CO)[C@@H](O)[C@H]2O)c(=O)n1 [Azacitidine] | 5.07 | 6.21 | 1.3 | 5.2 | – | 0.836 | – | – | – | – | –
8 | CC(C)C[C@H](NC(=O)[C@H](Cc1ccccc1)NC(=O)c1cnccn1)B(O)O [Bortezomib] | 0.00397 | > 10 | < 0.01 | 0.00571 | – | < 0.01 | – | – | – | – | –
9 | CS(=O)(=O)OCCCCOS(C)(=O)=O [Busulfan] | > 10 | 6.36 | > 10 | > 5 | – | > 5 | – | – | – | – | –
10 | CCCCCOC(=O)Nc1nc(=O)n([C@@H]2O[C@H](C)[C@@H](O)[C@H]2O)cc1F [Capecitabine] | > 10 | > 10 | > 10 | > 10 | – | > 10 | – | – | – | – | –
11 | O=NN(CCCl)C(=O)NCCCl [Carmustine] | > 10 | > 10 | > 10 | > 5 | – | > 5 | – | – | – | – | –
12 | Cc1ccc(-c2cc(C(F)(F)F)nn2-c2ccc(S(N)(=O)=O)cc2)cc1 [Celecoxib] | > 10 | > 10 | > 10 | > 10 | – | > 10 | – | – | – | – | –
13 | O=C(O)CCCc1ccc(N(CCCl)CCCl)cc1 [Chlorambucil] | 6.41 | 5.56 | 7.29 | 4.47 | – | 3.38 | – | – | – | – | –
14 | N.N.[Cl][Pt][Cl] [Cisplatin] | – | – | – | – | – | – | > 10 | > 10 | > 10 | > 5 | > 5
15 | O=P1(N(CCCl)CCCl)NCCCO1 (centres unmarked) [Cyclophosphamide] | > 10 | > 10 | > 10 | > 5 | – | > 5 | – | – | – | – | –
16 | CN(C)/N=N/c1[nH]cnc1C(N)=O [Dacarbazine] | > 10 | > 10 | > 10 | > 10 | – | > 10 | – | – | – | – | –
17 | Cc1nc(Nc2ncc(C(=O)Nc3c(C)cccc3Cl)s2)cc(N2CCN(CCO)CC2)n1 [Dasatinib] | < 1e-06 | > 10 | 4.05 | < 1e-06 | – | 0.00748 | – | – | – | – | –
18 | C[C@@H](CN1CC(=O)NC(=O)C1)N1CC(=O)NC(=O)C1 [Dexrazoxone] | > 10 | > 10 | > 10 | > 5 | – | > 5 | – | – | – | – | –
19 | COc1cccc2c1C(=O)c1c(O)c3c(c(O)c1C2=O)C[C@@](O)(C(=O)CO)C[C@@H]3O[C@H]1C[C@H](N)[C@H](O)[C@H](C)O1 [Doxorubicin] | 0.12 | 7.84 | < 0.01 | 0.0585 | – | < 0.01 | – | – | – | – | –
20 | C#Cc1cccc(Nc2ncnc3cc(OCCOC)c(OCCOC)cc23)c1 [Erlotinib] | 2.98 | 5.7 | 1 | 6.68 | – | 5.82 | – | – | – | – | –
21 | C[C@]12CC[C@@H]3c4ccc(OC(=O)N(CCCl)CCCl)cc4CC[C@H]3[C@@H]1CC[C@@H]2O [Estramustine] | > 10 | > 10 | > 10 | > 10 | – | > 10 | – | – | – | – | –
22 | CO[C@H]1C[C@@H]2CC[C@@H](C)[C@@](O)(O2)C(=O)C(=O)N2CCCC[C@H]2C(=O)O[C@H]([C@H](C)C[C@@H]2CC[C@@H](OCCO)[C@H](OC)C2)CC(=O)[C@H](C)/C=C(\C)[C@@H](O)[C@@H](OC)C(=O)[C@H](C)C[C@H](C)/C=C/C=C/C=C/1C [Everolimus] | 0.834 | > 10 | < 0.01 | < 0.01 | – | < 0.01 | – | – | – | – | –
23 | C=C1C[C@@H]2[C@H](CC[C@]3(C)C(=O)CC[C@@H]23)[C@@]2(C)C=CC(=O)C=C12 [Exemestane] | > 10 | > 10 | 2.08 | > 10 | – | 8.89 | – | – | – | – | –

Row | SMILES | IC50 (B1 cell line; Homo sapiens, 96 h) [µM] | IC50 (MOLT-3 cell line; Homo sapiens, MOLT-3, 96 h) [µM] | IC50 (SEM cell line; Homo sapiens, 96 h) [µM] | IC50 (TIB-202 cell line; Homo sapiens, 96 h) [µM] | IC50 (KOPN8 cell line; Homo sapiens, KOPN-8) [µM] | IC50 (KOPN8 cell line; Homo sapiens, KOPN-8, 96 h) [µM] | IC50 (B1 cell line; Table S1, B1, 96 hours) [µM] | IC50 (MOLT-3 cell line; Table S1, MOLT-3, 96 hours) [µM] | IC50 (SEM cell line; Table S1, SEM, 96 hours) [µM] | IC50 (TIB-202 cell line; Table S1, TIB-202, 96 hours) [µM] | IC50 (KOPN8 cell line; Table S1, KOPN8, 96 hours) [µM]
24 | O=c1[nH]c(=O)n([C@H]2C[C@H](O)[C@@H](CO)O2)cc1F [Floxuridine] | 8.48 | > 10 | > 10 | > 5 | – | > 5 | – | – | – | – | –
25 | O=c1[nH]cc(F)c(=O)[nH]1 [Fluorouracil] | > 10 | 7.11 | > 10 | > 5 | – | > 5 | – | – | – | – | –
26 | C[C@]12CC[C@@H]3c4ccc(O)cc4C[C@@H](CCCCCCCCC[S+]([O-])CCCC(F)(F)C(F)(F)F)[C@H]3[C@@H]1CC[C@@H]2O (some centres unmarked) [Fulvestrant] | > 10 | > 10 | > 10 | > 10 | – | 7.64 | – | – | – | – | –
27 | NC(=O)NO [Hydroxyurea] | – | – | – | – | – | – | > 10 | > 10 | > 10 | > 5 | > 5
28 | O=P1(NCCCl)OCCCN1CCCl (centres unmarked) [Ifosfamide] | > 10 | > 10 | > 10 | > 5 | – | > 5 | – | – | – | – | –
29 | CC(C)Cn1cnc2c(N)nc3ccccc3c21 [Imiquimod] | > 10 | > 10 | > 10 | > 10 | – | 2.9 | – | – | – | – | –
30 | CCc1c2c(nc3ccc(OC(=O)N4CCC(N5CCCCC5)CC4)cc13)-c1cc3c(c(=O)n1C2)COC(=O)[C@]3(O)CC [Irinotecan] | 2.29 | 3.92 | 3.4 | 2.53 | – | 1.69 | – | – | – | – | –
31 | CS(=O)(=O)CCNCc1ccc(-c2ccc3ncnc(Nc4ccc(OCc5cccc(F)c5)c(Cl)c4)c3c2)o1 [Lapatinib] | 5.7 | > 10 | 4.73 | 7.42 | – | 5.2 | – | – | – | – | –
32 | Nc1cccc2c1CN(C1CCC(=O)NC1=O)C2=O (centres unmarked) [Lenalidomide] | > 10 | 10 | > 10 | > 10 | – | > 10 | – | – | – | – | –
33 | N#Cc1ccc(C(c2ccc(C#N)cc2)n2cncn2)cc1 [Letrozole] | > 10 | > 10 | > 10 | > 10 | – | > 10 | – | – | – | – | –
34 | O=NN(CCCl)C(=O)NC1CCCCC1 [Lomustine] | 8.32 | > 10 | 9.35 | > 5 | – | > 5 | – | – | – | – | –
35 | CC(=O)O[C@]1(C(C)=O)CC[C@H]2[C@@H]3C=C(C)C4=CC(=O)CC[C@]4(C)[C@H]3CC[C@@]21C [Megestrol acetate] | > 10 | > 10 | > 10 | > 5 | – | > 5 | – | – | – | – | –
36 | N[C@@H](Cc1ccc(N(CCCl)CCCl)cc1)C(=O)O [Melphalan] | 4.08 | 1.03 | 5.8 | 2.2 | – | 0.425 | – | – | – | – | –
37 | S=c1[nH]cnc2nc[nH]c12 [Mercaptopurine] | > 10 | > 10 | > 10 | > 5 | – | > 5 | – | – | – | – | –
38 | COc1c2occc2cc2ccc(=O)oc12 [Methoxsalen] | > 10 | > 10 | > 10 | > 5 | – | > 5 | – | – | – | – | –
39 | Clc1ccc(C(c2ccccc2Cl)C(Cl)Cl)cc1 (centres unmarked) [Mitotane] | > 10 | > 10 | > 10 | > 5 | – | > 5 | – | – | – | – | –
40 | COc1nc(N)nc2c1ncn2[C@@H]1O[C@H](CO)[C@@H](O)[C@@H]1O [Nelarabine] | > 10 | 1.23 | > 10 | > 10 | – | > 10 | – | – | – | – | –
41 | Cc1cn(-c2cc(NC(=O)c3ccc(C)c(Nc4nccc(-c5cccnc5)n4)c3)cc(C(F)(F)F)c2)cn1 [Nilotinib] | < 0.01 | > 10 | > 10 | < 0.01 | – | > 10 | – | – | – | – | –
42 | O=C1[O][Pt]2([NH][C@@H]3CCCC[C@H]3[NH]2)[O]C1=O [Oxaliplatin] | – | – | – | – | – | – | 3.68 | 0.969 | 5.67 | 6.2 | 0.309
43 | OC[C@H]1O[C@@H](n2cnc3c2NC=NC[C@H]3O)C[C@@H]1O [Pentostatin] | > 10 | > 10 | > 10 | > 5 | – | > 5 | – | – | – | – | –
44 | O=C(CCBr)N1CCN(C(=O)CCBr)CC1 [Pipobroman] | 2.63 | 6.35 | 4.32 | 4.34 | – | 0.389 | – | – | – | – | –
45 | CNNCc1ccc(C(=O)NC(C)C)cc1 [Procarbazine] | > 10 | > 10 | > 10 | > 5 | – | > 5 | – | – | – | – | –
46 | O=C(c1ccc(OCCN2CCCCC2)cc1)c1c(-c2ccc(O)cc2)sc2cc(O)ccc12 [Raloxifene] | > 10 | > 10 | 4.44 | > 10 | – | 8.3 | – | – | – | – | –
